Test system: Hepatitis B virus
Assay: Antiviral activity against HBV transfected in human HepG2(2.2.15) cells assessed as inhibition of HBsAg secretion by ELISA
Type: functional, organism-based

`Nc1ccn([C@@H]2CS[C@H](CO)O2)c(=O)n1` [LAMIVUDINE] gave an IC50 of 58 µM.

Test system: not listed separately
Assay: Cytotoxicity against human HepG2(2.2.15) cells after 8 days by MTT assay
Type: cell-based

Point of comparison: `COc1c(-c2ccc(O[C@@H]3O[C@H](CO)[C@@H](O)[C@H](O)[C@H]3O)c(O)c2)oc2cc(O[C@@H]3O[C@H](CO)[C@@H](O)[C@H](O)[C@H]3O)cc(O)c2c1=O`, CC50 at 192 h 7.9 µM. Against it:
- O=c1c(CO)c(-c2ccc(O[C@@H]3O[C@H](CO)[C@@H](O)[C@H](O)[C@H]3O)c(O)c2)oc2cc(O)cc(O)c12 — 2.5-fold higher, 19.7 µM
- Nc1ccn([C@@H]2CS[C@H](CO)O2)c(=O)n1 [LAMIVUDINE] — 300-fold higher, 2400 µM
- O=c1c2c(oc3cc(O)cc(O)c13)-c1ccc(O)c(O)c1CO2 [OPHIOGLONIN] — 2.6-fold higher, 20.4 µM
- COc1c(-c2ccc(O)c(O)c2)oc2cc(O)cc(O)c2c1=O [3-O-METHYLQUERCETIN] — 3.8-fold lower, 2.1 µM
- O=c1c(O)c(-c2ccc(O)c(O)c2)oc2cc(O)cc(O)c12 [QUERCETIN] — 4.8-fold higher, 38.1 µM
- O=c1c(CO)c(-c2ccc(O[C@@H]3O[C@H](CO)[C@@H](O)[C@H](O)[C@H]3O)c(O)c2)oc2cc(O[C@@H]3O[C@H](CO)[C@@H](O)[C@H](O)[C@H]3O[C@@H]3O[C@H](CO)[C@@H](O)[C@H](O)[C@H]3O)cc(O)c12 [PEDUNCULOSUMOSIDE E] — higher, > 100 µM
- COc1c(-c2ccc(O)c(O)c2)oc2cc(O[C@@H]3O[C@H](CO)[C@@H](O)[C@H](O)[C@H]3O)cc(O)c2c1=O [TRANSILIN] — within 1.5-fold, 5.4 µM
- O=c1c(CO)c(-c2ccc(O[C@@H]3O[C@H](CO)[C@@H](O)[C@H](O)[C@H]3O)c(O)c2)oc2cc(O[C@@H]3O[C@H](CO)[C@@H](O)[C@H](O)[C@H]3O)cc(O)c12 [PEDUNCULOSUMOSIDE F] — 7.2-fold higher, 56.7 µM

Reference: ChEMBL document CHEMBL1772944, “Homoflavonoid glucosides from Ophioglossum pedunculosum and their anti-HBV activity” (J Nat Prod, 2011)
